Data: patent publication US12370208B2, “Adenosine derivative and pharmaceutical composition comprising the same” (Brii Biosciences, Inc., priority 2019, dated 2025)
Where “and” joins values, the source holds several entries; their conditions need not be identical. Identical values can stand only once. Blank lines part the entries; values can stand above or below the molecule they belong to.

What was measured:
[1] = Plasma exposures following oral administration to beagle dogs
[2] = Liver S9 stability and conversion to EFdA in human liver S9; format: in vitro ADME; details: for Stability in Human Liver S9 Half-life: human liver S9, 37° C.; for Conversion to the target drug: liver S9 assay
Protocol: Intermediate solution: Dilute 5 μL of compounds or controls (7-ethoxycoumarin) from stock solution (10 mM) with 495 μL MeOH (Conc.: 100 μM, 1% DMSO, 99% MeOH). Stop solution: Cold ACN (including 100 ng/mL Tolbutamide and Labetalol as internal standard). Add 2 μL test compound or control working solution/well to all plates (T0, T5, T10, T20, T30, T60, NCF60) except matrix blank. Add 600 μL/well stop solution (cold in 4° C., including 100 ng/mL Tolbutamide/100 ng/mL Labetalol) to terminate the T0 plate, then put it on ice. Dispense 840 μL/well S9 solution to 96-well plate as reservoir according to plate map. Then add 100 μL/well to every plate by Apricot. Incubate S9 solution and compound at 37° C. for about 10 min except NCF60 and TO. After adding S9 solution and 98 μL PB buffer to NCF60, incubate at 37° C. without pre-warming, start timer 1. After 60 min, add 600 μL/well stop solution to terminate the reaction. After pre-warming, dispense 760 μL/well cofactor solution to 96-well plate as reservoir according to plate map. Then add 98 μL/well to every plate by Apricot to start reaction. Incubate at 37° C., start timer 2, Add 600 μL/well stop solution (cold in 4° C., including 100 ng/mL Tolbutamide and Labetalol) to terminate the reaction. Samples are centrifuged at 4000 rpm for 20 min. While centrifuging, load 8×new 96-well plate with 300 μL HPLC water, then transfer 100 μL supernatant, mix with water for LC/MS/MS, transferred to Bioanalytical Services for LC-MS/MS analysis. Use equation of first order kinetics to calculate t1/2 and CL: Equation of first order kinetics: […]

[3] = Plasma stability and conversion to EFdA in human plasma; format: in vitro ADME
Protocol: The pooled frozen plasma was thawed in a water bath at 37° C. prior to experiment. Plasma was centrifuged at 4000 rpm for 5 min and the clots were removed if any. The pH will be adjusted to 7.4±0.1 if required.
Preparation of test compounds and positive control (propantheline bromide): 1 mM intermediate solution was prepared by diluting 10 μL of the stock solution with 90 μL MeOH; 1 mM intermediate of positive control Propantheline was prepared by diluting 10 μL of the stock solution with 90 μL ultrapure water. 100 μM dosing solution was prepared by diluting 20 μL of the intermediate solution (1 mM) with 180 μL MeOH. 98 μL of blank plasma was spiked with 2 μL of dosing solution (100 μM) to achieve 2 μM of the final concentration in duplicate and samples were incubated at 37° C. in a water bath. At each time point (0, 10, 30, 60 and 120 min), 400 μL of stop solution (0.1% FA in MeOH containing 200 ng/mL tolbutamide and 200 ng/mL Labetalol) was added to precipitate protein and mixed thoroughly. Centrifuged sample plates at 4,000 rpm for 10 min. An aliquot of supernatant (100 μL) was transferred from each well to another plates.
Data analysis: The % remaining of test compound after incubation in plasma was calculated using following equation: % Remaining=100×(PAR at appointed incubation time/PAR at T0 time) where PAR is the peak area ratio of analyte versus internal standard (IS) (LC/MS/MS mobile phase condition: 0.1% Formic Acid in Water/0.1% Formic Acid in Acetonitrile. The appointed incubation time points are T0 (0 min), Tn (n=0, 10, 30, 60, 120 min). Liver S9 Stability

[4] = Prodrug formula 4-A PO 8.25 mg/kg, 12.0 hrs, individual animals 2001-2003
[5] = Prodrug formula 4-A PO 8.25 mg/kg, 24.0 hrs, individual animals 2001-2003

Structure (SMILES): C#C[C@]1(COC(=O)OCc2oc(=O)oc2C)O[C@@H](n2cnc3c(N)nc(F)nc32)C[C@@H]1OC(=O)OCc1oc(=O)oc1C [Formula 4-C, [(2R,3S,5R)-5-(6-amino-2-fluoro-purin-9-yl)-2-ethynyl-2-[(5-methyl-2-oxo-1,3-dioxol-4-yl)methoxycarbonyloxymethyl]tetrahydrofuran-3-yl] (5-methyl-2-oxo-1,3-dioxol-4-yl)methyl carbonate]
Stability in Human Liver S9 Formation of EFdA [2]: Yes
Stability in Human Liver S9 Half-life [2]: C (C: <50 minutes)
Conversion to the target drug [2]: can be converted to the target drug efficiently
Conversion to the target drug [3]: can be converted to the target drug efficiently
Stability in Human Plasma Formation of EFdA [3]: Yes

Structure (SMILES): C#C[C@]1(COC(=O)NC(C)C)O[C@@H](n2cnc3c(N)nc(F)nc32)C[C@@H]1O [Formula 2-A, ((2R,3S,5R)-5-(6-amino-2-fluoro-9H-purin-9-yl)-2-ethynyl-3-hydroxytetrahydrofuran-2-yl)methyl isopropylcarbamate]
Stability in Human Liver S9 Formation of EFdA [2]: No
Stability in Human Plasma Formation of EFdA [3]: No

Structure (SMILES): C#C[C@]1(CO)O[C@@H](n2cnc3c(NC(=O)OC(C)C)nc(F)nc32)C[C@@H]1O [Formula 3-A, isopropyl (9-((2R,4S,5R)-5-ethynyl-4-hydroxy-5-(hydroxymethyl)tetrahydrofuran-2-yl)-2-fluoro-9H-purin-6-yl)carbamate]
Stability in Human Liver S9 Formation of EFdA [2]: No
Stability in Human Liver S9 Half-life [2]: B (B: 50-200 minutes)
Stability in Human Plasma Formation of EFdA [3]: No

Structure (SMILES): C#C[C@]1(COC(=O)OCc2oc(=O)oc2C)O[C@@H](n2cnc3c(N)nc(F)nc32)C[C@@H]1O [Formula 4-A, ((2R,3S,5R)-5-(6-amino-2-fluoro-9H-purin-9-yl)-2-ethynyl-3-hydroxytetrahydrofuran-2-yl)methyl((5-methyl-2-oxo-1,3-dioxol-4-yl)methyl) carbonate]
Stability in Human Liver S9 Formation of EFdA [2]: Yes
Conversion to the target drug [2]: can be converted to the target drug efficiently
AUC compared with a dose-equivalent EFdA ([1]; EFdA in dog plasma, oral): higher
Cmax compared with a dose-equivalent EFdA ([1]; EFdA in dog plasma, oral): higher
Prodrug formula 4-A Concentrations in Dog Plasma ([1]; Prodrug formula 4-A PO 8.25 mg/kg, 0.250 hrs, individual animals 2001-2003, 8.25 mg/kg): 1.13 ng/mL and 1.63 ng/mL and 1.09 ng/mL
Prodrug formula 4-A Concentrations in Dog Plasma, Mean ([1]; Prodrug formula 4-A PO 8.25 mg/kg, 0.250 hrs, mean of 3 dogs): 1.28 ng/mL
Prodrug formula 4-A Concentrations in Dog Plasma, Mean ([1]; Prodrug formula 4-A PO 8.25 mg/kg, 0.500 hrs, Mean column (one animal above BQL)): 1.68 ng/mL
Prodrug formula 4-A Concentrations in Dog Plasma ([1]; Prodrug formula 4-A PO 8.25 mg/kg, 0.500 hrs, individual animals 2001-2003, 8.25 mg/kg): BQL (2×) and 1.68 ng/mL
Prodrug formula 4-A Concentrations in Dog Plasma, Mean ([1]; Prodrug formula 4-A PO 8.25 mg/kg, 1.00 hrs, Mean column (one animal above BQL)): 1.43 ng/mL
Prodrug formula 4-A Concentrations in Dog Plasma ([1]; Prodrug formula 4-A PO 8.25 mg/kg, 1.00 hrs, individual animals 2001-2003, 8.25 mg/kg): BQL (2×) and 1.43 ng/mL
Prodrug formula 4-A Concentrations in Dog Plasma ([1]; Prodrug formula 4-A PO 8.25 mg/kg, 2.00 hrs, individual animals 2001-2003): BQL
Prodrug formula 4-A Concentrations in Dog Plasma ([1]; Prodrug formula 4-A PO 8.25 mg/kg, 4.00 hrs, individual animals 2001-2003): BQL
Prodrug formula 4-A Concentrations in Dog Plasma ([1]; Prodrug formula 4-A PO 8.25 mg/kg, 6.00 hrs, individual animals 2001-2003): BQL
Prodrug formula 4-A Concentrations in Dog Plasma ([1]; Prodrug formula 4-A PO 8.25 mg/kg, 8.00 hrs, individual animals 2001-2003): BQL
EFdA Concentrations in Dog Plasma [1, 4]: BQL
Prodrug formula 4-A Concentrations in Dog Plasma [1, 4]: BQL
EFdA Concentrations in Dog Plasma [1, 5]: BQL
Prodrug formula 4-A Concentrations in Dog Plasma [1, 5]: BQL
Prodrug detected in the systemic circulation ([1]; dogs, oral): minimal
Stability in Human Plasma Formation of EFdA [3]: Yes
Conversion to the target drug ([3]; human plasma assay): can be converted to the target drug efficiently

The next lines start with results.

EFdA Concentrations in Dog Plasma ([1]; EFdA PO 5 mg/kg, 6.00 hrs, individual animals 4001-4003): BQL
EFdA Concentrations in Dog Plasma ([1]; EFdA PO 5 mg/kg, 8.00 hrs, individual animals 4001-4003): BQL
EFdA Concentrations in Dog Plasma ([1]; EFdA PO 5 mg/kg, 12.0 hrs, individual animals 4001-4003): BQL
EFdA Concentrations in Dog Plasma ([1]; EFdA PO 5 mg/kg, 24.0 hrs, individual animals 4001-4003): BQL
EFdA Exposure in Plasma Cmax ([1]; oral EFdA 5 mg/kg, dogs): 392 ng/mL
EFdA Exposure in Plasma AUC ([1]; oral EFdA 5 mg/kg, dogs, AUC0-24 h): 792 ng·h/mL
Structure (SMILES): C#C[C@]1(CO)O[C@@H](n2cnc3c(N)nc(F)nc32)C[C@@H]1O [EFdA, (2R,3S,5R)-5-(6-amino-2-fluoro-9H-purin-9-yl)-2-ethynyl-2-(hydroxymethyl)tetrahydrofuran-3-ol, reference compound]

Stability in Human Liver S9 Formation of EFdA [2]: No
Stability in Human Plasma Formation of EFdA [3]: No
Structure (SMILES): C#C[C@]1(COC(=O)NC)O[C@@H](n2cnc3c(N)nc(F)nc32)C[C@@H]1O [Formula 5-A, ((2R,3S,5R)-5-(6-amino-2-fluoro-9H-purin-9-yl)-2-ethynyl-3-hydroxytetrahydrofuran-2-yl)methyl methylcarbamate]

Stability in Human Liver S9 Formation of EFdA [2]: No
Stability in Human Plasma Formation of EFdA [3]: No
Structure (SMILES): C#C[C@]1(COC(=O)NCCN(C)Cc2oc(=O)oc2C)O[C@@H](n2cnc3c(N)nc(F)nc32)C[C@@H]1O [Formula 7-A, ((2R,3S,5R)-5-(6-amino-2-fluoro-9H-purin-9-yl)-2-ethynyl-3-hydroxytetrahydrofuran-2-yl)methyl (2-(methyl((5-methyl-2-oxo-1,3-dioxol-4-yl)methyl)amino)ethyl)carbamate]

Stability in Human Liver S9 Formation of EFdA [2]: Yes
Stability in Human Plasma Formation of EFdA [3]: No
Structure (SMILES): C#C[C@]1(CO)O[C@@H](n2cnc3c(NCc4oc(=O)oc4C)nc(F)nc32)C[C@@H]1O [Formula 6-A, 4-(((9-((2R,4S,5R)-5-ethynyl-4-hydroxy-5-(hydroxymethyl)tetrahydrofuran-2-yl)-2-fluoro-9H-purin-6-yl)amino)methyl)-5-methyl-1,3-dioxol-2-one]
Conversion to the target drug [2]: can be converted to the target drug efficiently
